Results published in patent US12371459B2, “Antimicrobial peptide derived from Pseudin-2 peptide and uses thereof” (INDUSTRY-ACADEMIC COOPERATION FOUNDATION, CHOSUN UNIVERSITY, priority 2019, dated 2025).
“And” between values parts separate entries of the source, which are not always exact repeats. Equal entries are not always repeated. Ends that are not written are not given here.

Tests used:
in vitro = conditions: human, HaCaT keratinocyte cells
Description: To determine the cytotoxicity of the peptides produced by the method of Example 1 in normal cell line, cytotoxicity was measured by using human keratinocyte cell line (HaCaT cell line, Dr. N E. Fusenig, Heidelberg, Germany).
Specifically, HaCaT cells, which have been cultured in DMEM medium containing 10% FBS (fetal bovine serum), were aliquoted in a microtiter plate to have 2×10^5 cells per well. […] Twenty-four hours later, a reaction solution containing 0.5 mg/ml MTT (thiazolyl blue tetrazolium bromide) dissolved in phosphate buffered saline (PBS) was added in an amount of 100 μl to each well and the reaction was allowed to occur for 4 hours. After that, the supernatant was discarded, and, by dissolving MTT crystals that are formed by adding 200 μl DMSO (dimethyl sulfoxide), the absorbance at 560 nm was measured to determine the cell survival ability.

[1] = system: Candida albicans KCTC 7270; conditions: KCTC 7270, 18 h
Text: (§1) To compare the antimicrobial activity among the peptides produced by the method of Example 1, the inventors of the present invention measured the minimal growth inhibitory concentration (MIC), which is minimum concentration of the peptide not allowing any […] of bacterial cells.
(§2) Specifically, the bacterial strains described in the following Table 2 were purchased and cultured to a mid-log phase in a medium that is appropriate for each strain. […] After the addition to a plate, the cells were cultured for 18 hours at 37° C. […] As a control, Pseudin-2 as a mother peptide was used.

[2] = system: Staphylococcus aureus CCARM 3518 (tolerance to antibiotics)
Text: as §1, §2

[3] = system: Bacillus subtilis KCTC 1998; conditions: KCTC 1998, 18 h
Text: as §1, §2

[4] = system: Trichosporon beigelii KCTC 7707; conditions: KCTC 7707, 18 h
Text: as §1, §2

[5] = system: Pseudomonas aeruginosa isolated strain 4891 (tolerance to antibiotics)
Text: as §1, §2

[6] = system: Staphylococcus aureus ATCC 25923; conditions: ATCC 25923, 18 h
Text: as §1, §2

[7] = system: Escherichia coli CCARM 1238 (tolerance to antibiotics)
Text: as §1, §2

[8] = system: Listeria monocytogenes KCTC 3710; conditions: KCTC 3710, 18 h
Text: as §1, §2

[9] = system: Escherichia coli ATCC 25922; conditions: ATCC 25922, 18 h
Text: as §1, §2

[10] = system: Escherichia coli CCARM 1229 (tolerance to antibiotics)
Text: as §1, §2

[11] = system: Salmonella typhimurium KCTC 1926; conditions: KCTC 1926, 18 h
Text: as §1, §2

[12] = system: Pseudomonas aeruginosa ATCC 27853; conditions: ATCC 27853, 18 h
Text: as §1, §2

[13] = system: Pseudomonas aeruginosa isolated strain 4007 (tolerance to antibiotics)
Text: as §1, §2

[14] = system: Staphylococcus aureus CCARM 3090 (tolerance to antibiotics)
Text: as §1, §2

[15] = system: erythrocytes of a mouse (Balb/c); assay: Erythrocyte hemolytic activity; conditions: 1 hour at 37° C.
Description: To compare the cytotoxicity among the peptides that are produced by the method of Example 1, erythrocyte hemolytic activity of the synthesized peptide was measured.
After that, the amount of hemoglobin contained in a supernatant collected by centrifuge at 1,000×g was determined by measuring the absorbance at a wavelength of 414 nm. As a control to be used as a reference for cell disruption level, the supernatant collected by a treatment with 1% Triton X-100 (Sigma, USA) and a reaction for 1 hour at 37° C. was used to measure the absorbance. By setting the resulting absorbance value at 100% of the erythrocyte hemolytic activity, hemolysis of each peptide was calculated using the following equation 1. Erythrocyte disrupting ability (%)=(Absorbance A−Absorbance B)/(Absorbance C−Absorbance B)×100 Equation 1 (in the above equation, Absorbance A indicates the absorbance of a reaction solution treated with each peptide, in which the absorbance is measured at a wavelength of 414 nm; Absorbance B indicates the absorbance of a reaction solution treated with PBS, in which the absorbance is measured at a wavelength of 414 nm; and Absorbance C indicates the absorbance of a reaction solution treated with 1% Triton X-100, in which the absorbance is measured at a wavelength of 414 nm).

plasmid DNA (pRSETB) = assay: Binding between antimicrobial peptide and DNA (agarose gel electrophoresis); conditions: plasmid DNA 300 ng, peptide/DNA ratio 0.25:1 to 4:1, 10 minutes at 37° C.
Description: Specifically, plasmid DNA (pRSETB, 300 ng) and the peptide were reacted for at different ratio (i.e., peptide/DNA ratio was 0 (DNA only), 0.25:1, 0.5:1, 1:1, 1.5:1, 2:1, 3:1, or 4:1) for 10 minutes at 37° C. After that, electrophoresis was carried out using 1% agarose gel followed by staining with ethidium bromide (EtBr) and UV determination.

Escherichia coli = assay: Flow cytometry, propidium iodide, effect on bacteria membrane; type: cell-based; conditions: peptide at MIC
Description: (§3) After that, the supernatant was removed by centrifuge (10,000 rpm) and stained with propidium iodide (PI, concentration of 10 μg/ml) for 30 minutes at 4° C. Thereafter, unbound propidium iodide was removed by centrifuge, and the problem of cell aggregation phenomenon was solved by adding physiological saline (PBS) in an amount of 1 ml.

Staphylococcus aureus = assay: as above; type: cell-based; conditions: peptide at MIC
Description: as §3

Substance	viability at 24 h, 3.13 µM (in vitro; Cell survival ability) [%]	viability at 24 h, 6.25 µM (in vitro; Cell survival ability) [%]	viability at 24 h, 12.5 µM (in vitro; Cell survival ability) [%]	viability at 24 h, 25 µM (in vitro; Cell survival ability) [%]	viability at 24 h, 50 µM (in vitro; Cell survival ability) [%]	viability at 24 h, 100 µM (in vitro; Cell survival ability) [%]	Minimal inhibitory concentration [1] [µM]	Minimal inhibitory concentration [2] [µM]	viability at 24 h, 3.13 µM (in vitro) [%]	viability at 24 h, 6.25 µM (in vitro) [%]	viability at 24 h, 12.5 µM (in vitro) [%]	viability at 24 h, 25 µM (in vitro) [%]	viability at 24 h, 50 µM (in vitro) [%]	viability at 24 h, 100 µM (in vitro) [%]	Erythrocyte disrupting ability ([15]; peptide concentration 3.13 μM) [%]	Erythrocyte disrupting ability ([15]; peptide concentration 6.25 μM) [%]	Erythrocyte disrupting ability ([15]; peptide concentration 12.5 μM) [%]	Erythrocyte disrupting ability ([15]; peptide concentration 25 μM) [%]	Erythrocyte disrupting ability ([15]; peptide concentration 50 μM) [%]	Erythrocyte disrupting ability ([15]; peptide concentration 100 μM)	further results
ALNALKKVSQGIHEAIKLIANHVQ-NH2 [Pse-Anal7]	100	100	100	100	100	100	32	32													Minimal inhibitory concentration [3]: 16 µM; Minimal inhibitory concentration [4]: 32 µM; Minimal inhibitory concentration [5]: 32 µM; Minimal inhibitory concentration [6]: 16 µM; Minimal inhibitory concentration [7]: 16 µM; Minimal inhibitory concentration [8]: 16 µM; Minimal inhibitory concentration [9]: 8 µM; Minimal inhibitory concentration [10]: 16 µM; Minimal inhibitory concentration [11]: 8 µM; Minimal inhibitory concentration [12]: 8 µM; Minimal inhibitory concentration [13]: 32 µM; Minimal inhibitory concentration [14]: 32 µM
GLNALKKVFQGIHEAIKKINNHVQ-NH2 [Pse-18L-K]									100	100	100	100	100	81.5	2.4	3.4	5.4	12.5	24.2	36.7%	
GLNALKKVFQGIHEAIKLINNHVQ-NH2 [Pseudin-2]									100	100	100	100	100	82.1	0	0	0	0	3.2	10% and 10.1%	Binding to DNA (plasmid DNA (pRSETB)): did not show any binding to DNA
GLNALKKVSQGIHEAIKLINNHVQ-NH2 [Pse-Anal5]									100	100	100	100	96.3	83.5	0	0.7	2.3	5.9	11.7	20.1%	
GLNALKKVSQGIHESIKLINNHVQ-NH2 [Pse-Anal6]	100	100	100	100	100	92.1	64	64													Minimal inhibitory concentration [3]: 32 µM; Minimal inhibitory concentration [4]: 64 µM; Minimal inhibitory concentration [5]: 64 µM; Minimal inhibitory concentration [6]: 32 µM; Minimal inhibitory concentration [7]: 64 µM; Minimal inhibitory concentration [8]: 32 µM; Minimal inhibitory concentration [9]: 16 µM; Minimal inhibitory concentration [10]: 64 µM; Minimal inhibitory concentration [11]: 16 µM; Minimal inhibitory concentration [12]: 16 µM; Minimal inhibitory concentration [13]: 64 µM; Minimal inhibitory concentration [14]: 64 µM
LNALKKVFQGIHEAIKLI-NH2 [Pse-T1]									100	100	100	100	98.8	86.2	0	0	0	0	3.9	12.3%	Membrane disrupting ability compared with Pseudin-2 (Escherichia coli): higher membrane disrupting ability than Pseudin-2; Membrane disrupting ability compared with Pseudin-2 (Staphylococcus aureus): higher membrane disrupting ability than Pseudin-2; Binding to DNA (plasmid DNA (pRSETB)): showed binding to DNA
WLNALKKVFQGIHEAIKLINNHVQ-NH2 [Pse-Anal1]									80.1	35.2	26.8	15.9	13.6	1.8	50.9	58.6	68.9	82.0	93.5	100%	
WLNALKKVFQGIHEAIKLIWNHVQ-NH2 [Pse-Anal2]	81.3	48.1	32.2	18.8	15.7	5.1	32	4													Minimal inhibitory concentration [3]: 4 µM; Minimal inhibitory concentration [4]: 32 µM; Minimal inhibitory concentration [5]: 4 µM; Minimal inhibitory concentration [6]: 4 µM; Minimal inhibitory concentration [7]: 2 µM; Minimal inhibitory concentration [8]: 8 µM; Minimal inhibitory concentration [9]: 2 µM; Minimal inhibitory concentration [10]: 2 µM; Minimal inhibitory concentration [11]: 2 µM; Minimal inhibitory concentration [12]: 2 µM; Minimal inhibitory concentration [13]: 2 µM; Minimal inhibitory concentration [14]: 4 µM
WLNALKKVFQGIHEAIKLIWNWVQ-NH2 [Pse-Anal3]	55.4	45.8	25.6	24.1	13.6	10.8	32	32													Minimal inhibitory concentration [3]: 32 µM; Minimal inhibitory concentration [4]: 32 µM; Minimal inhibitory concentration [5]: 64 µM; Minimal inhibitory concentration [6]: 32 µM; Minimal inhibitory concentration [7]: 32 µM; Minimal inhibitory concentration [8]: 32 µM; Minimal inhibitory concentration [9]: 16 µM; Minimal inhibitory concentration [10]: 32 µM; Minimal inhibitory concentration [11]: 16 µM; Minimal inhibitory concentration [12]: 16 µM; Minimal inhibitory concentration [13]: 64 µM; Minimal inhibitory concentration [14]: 32 µM
